# Measured values reported in US20240325334A1, “COMPOSITION FOR GENERATING NITROGEN MONOXIDE” (SEOUL NATIONAL UNIVERSITY R&DB FOUNDATION, priority 2021, published 2024).
# Experiment: NO generation experiment: compound reacted with H2O2 in the presence of a catalyst, Griess assay
# Conditions: compound 1 mg/ml, PBS pH 5.5, 1 mM H2O2, 37° C., 4 hours
# Procedure: Generation of nitric oxide was investigated by reacting the above-described compounds having a structure of
# with hydrogen peroxide (H2O2) in the presence of a catalyst. After suspending particles including 1 mg/ml of the compound below and the catalyst in a medium composed of 5 ml of PBS at pH 5.5 and hydrogen peroxide (H2O2) at 1 mM concentration, the suspension was subjected to incubation at 37° C. for 4 hours, followed by sampling the supernatant to analyze the NO generation through Griess assay.
smiles,measurement,setting,value
N=C(N)NCCC[C@H](NC(=O)OCc1ccccc1)C(=O)O [Nα-Benzyloxycarbonyl-L-arginine],Concentration of generated NO,catalyst Mn-porphyrin 2 mg/ml,34 µM
same,Concentration of generated NO,catalyst PCN-223-Fe 1 mg/ml,216 µM
